Experimental data: patent publication US5087284A, “5-substituted thiadiazole ureas and their use as herbicides” (Rhone-Poulenc, Inc., priority 1989, dated 1992)

Key:
Type in all cases: in vivo
crops and weed species = test: Pre- and post-emergence herbicide tests, overall assessment; conditions: TABLES III-VI
Method: All crop and weed species were planted individually in 3" plastic pots containing potting soil. Four seeds each of corn, cotton, and snapbeans were seeded to a depth equal to the diameter of the seed. All other species were surface seeded and sprinkled with screened soil in an amount sufficient to cover the seed. Immediately after planting, all pots were watered by sub-irrigation in greenhouse trays. Pots for the pre-emergence phase were seeded one day before treatment.
Planting dates for the post-emergence phase were varied so that all seedlings would reach the desired stage of development simultaneously. The proper stage of seedling development for treatment in the post-emergence phase is as follows:
Compounds were tested at rates of application equivalent to 8 lbs. of actual compound per acre in a spray volume of 38 gallons per acre. Spray hood constants required to deliver the above volume are as follows:
Spray applications were made in a hood containing a removable belt and fixed spray nozzle. For passage through the spray hood, one pot of each specie (pre-emergence phase) was placed on the rear half of the flat. Treatments were removed to the greenhose after spraying. Watering during the observation period was done only by sub-irrigation.
Two weeks after treatment, pre- and post-emergence injury or control was visually rated, and the results were as shown in the following tables. Pre-emergence data are provided in TABLE III and post-emergence data are provided in TABLE IV, for compounds having the formula illustrated in TABLE I. Correspondingly, pre-emergence and post-emergence data, respectively, are set forth in TABLES V AND VI, for compounds having the formula illustrated in TABLE II.

Sinapis [1] = test: Field pre-emergence test, Sinapis; conditions: reading 0 (no effect) to 10 (completely killed), the values are: rating score 0–10
Method: (§1) Forty rows, 70 feet long, were planted to weeds and crops. Two rows were planted on each bed. Beds were 40 inches apart from center to center. The two rows were about 10 inches apart on each. Beds were rolled prior to planting to provide a uniform smooth surface. Soil temperature at a depth of 11/2 inches was 66° F. at time of planting. Post-emergence applications were made by spraying bands across rows 10 feet wide using a self-propelled plot sprayer with a 10 foot boom equipped with Teejet 8001 flat spray nozzle tips and operated at 40 psi. A total of 84 fluid ounces of spray material was applied to three replicates. Each replicate plot was 10 feet wide by 66.67 feet long.
(§2) An additional 100 feet of crops and weeds shown in TABLES XIII and XIV were planted in the same manner as the above post-emergence plots. Soil temperature at planting was […] at a depth of 11/2 inches. […]
(§3) Eight days after the application, readings were made on the effect of the chemicals on each crop and weed in the post-emergence treatment. A reading of 0 was recorded if no effect was observed; 10 recorded if the plants were completely killed, and readings of 1 to 9 for intermediate kills. A second reading of the post-emergence treatments was made 14 days after the application.
(§4) Readings were made 14 and 20 days after the pre-emergence application.

Wheat [2] = test: Field pre-emergence test, wheat; conditions: reading 0 (no effect) to 10 (completely killed), the values are: rating score 0–10
Method: as §1, §2, §3, §4

Sinapis [3] = test: Field post-emergence test, Sinapis; conditions: 2 lbs/acre, reading 0 (no effect) to 10 (completely killed), the values are: rating score 0–10
Method: as §1, §3

Oats [4] = test: Field post-emergence test, oats; conditions: 2 lbs/acre, reading 0 (no effect) to 10 (completely killed), the values are: rating score 0–10
Method: as §1, §3

Wheat [5] = test: Field post-emergence test, wheat; conditions: 2 lbs/acre, reading 0 (no effect) to 10 (completely killed), the values are: control rating (0–10 scale)
Method: as §1, §3

Oats [6] = test: Field pre-emergence test, oats; conditions: reading 0 (no effect) to 10 (completely killed), the values are: rating score 0–10
Method: as §1, §2, §3, §4

| SMILES | effectiveness applied to a variety of crops and weed species (crops and weed species) | selectivity when applied to a certain crop or weed species (crops and weed species) | further results |
| --- | --- | --- | --- |
| CSc1nnc(N(C)C(=O)N(C)C)s1 [Example 5, 1,1,3-trimethyl-3-[5-methylthio-3-(1,3,4-thiadiazolyl)] urea] | extremely effective |  |  |
| O=C(Nc1ccc(Cl)c(Cl)c1)Nc1nnc(C(F)(F)F)s1 [Example 16] |  | more selective |  |
| Cc1nnc(NC(=O)N(C)C)s1 [Example 19] |  |  | selectivity post-emergence versus pre-emergence (crops and weed species): The converse of this relationship |
| CCN(C(=O)NC)c1nnc(C(F)(F)F)s1 [Example 37] | extremely effective |  |  |
| CNC(=O)Nc1nnc(SC)s1 [Example 26] | extremely effective |  |  |
| CNC(=O)Nc1nnc(CC(C)C)s1 [Example 21] |  | more selective |  |
| CNC(=O)Nc1nnc(COC)s1 [Example 25] |  | more selective |  |
| CNC(=O)N(C)c1nnc(C(F)(F)F)s1 [Example 36] | extremely effective |  |  |
| CN(C)C(=O)Nc1nnc(C(F)(F)F)s1 [Example 2, 1,1-Dimethyl-3-[5-Trifluoromethyl-2-(1,3,4-Thiadiazolyl)] Urea] | extremely effective |  |  |
| C=CCNC(=O)Nc1nnc(C(F)(F)F)s1 [Example 12] |  |  | selectivity post-emergence versus pre-emergence (crops and weed species): control post-emergence growth, while have little effect in regard to pre-emergence |
| O=C(Nc1ccc(Cl)cc1)Nc1nnc(C(F)(F)F)s1 [Example 15] |  | more selective |  |
| CNC(=O)Nc1nncs1 [Example 35] |  | more selective |  |
| CCNC(=O)Nc1nnc(C(F)(F)F)s1 [Example 9] |  | more selective |  |
| CNC(=O)Nc1nnc(C(F)(F)F)s1 [Example 1, 1-Methyl-3-[5-Trifluoromethyl-2-(1,3,4-Thiadiazolyl)] Urea] | extremely effective |  | PRE-EMERGENCY ACTIVITY, % CONTROL (Sinapis [1]; 1 lbs/acre): 10; PRE-EMERGENCY ACTIVITY, % CONTROL (Sinapis [1]; 2 lbs/acre): 10; PRE-EMERGENCY ACTIVITY, % CONTROL (Wheat [2]; 1 lbs/acre): 10; PRE-EMERGENCY ACTIVITY, % CONTROL (Wheat [2]; 2 lbs/acre): 10; POST-EMERGENCE ACTIVITY, % CONTROL (Sinapis [3]): 10; POST-EMERGENCE ACTIVITY, % CONTROL (Oats [4]): 9; POST-EMERGENCE ACTIVITY, % CONTROL (Wheat [5]): 10; PRE-EMERGENCY ACTIVITY, % CONTROL (Oats [6]; 1 lbs/acre): 10; PRE-EMERGENCY ACTIVITY, % CONTROL (Oats [6]; 2 lbs/acre): 10 |
| CCc1nnc(NC(=O)N(C)C)s1 [Example 20] |  | more selective |  |
